Assay results from patent publication US10030020B2, “Spirocycle compounds and methods of making and using same” (Abide Therapeutics, Inc., priority 2016, dated 2018).

Key:
FAAH [1] = biological target: T1, FAAH (Mus musculus (Mouse), UniProt O08914); test: In vitro competitive activity-based protein profiling (mouse brain membrane fraction or cell lysates), FAAH band; type: biochemical; details: mouse proteome; for inhibition at 1 µM: read-out: FAAH % Inh 1 μM (mouse); for IC50: competitive ABPP
Procedure, shortened: (§1)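 Residual hydrolase activity was measured as gel band fluorescence after FP-Rh labelling (30 min, 37° C) of proteomes pretreated 30 min at 37° C with inhibitor.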

MAGL [2] = biological target: T2, MAGL (Mus musculus (Mouse), UniProt O35678); test: Mouse brain proteomes from inhibitor treated mice (oral gavage, sacrificed 4 h after administration, ABPP analysis); type: in vivo, mouse (C57Bl/6J); details: 5 mg/kg oral gavage
Procedure, shortened: (§2)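 Percent inhibition in brain tissue measured by ABPP 4 h after a single oral gavage dose (5 mg/kg) to wild-type C57Bl/6J mice; vehicle was, for example, PEG400/Ethanol/PBS at 7/2/1.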

FAAH [3] = biological target: T1, FAAH; test: Mouse brain proteomes from inhibitor treated mice (oral gavage, sacrificed 4 h after administration, ABPP analysis), FAAH; type: in vivo, mouse (C57Bl/6J); details: 5 mg/kg oral gavage
Procedure, shortened: as §2

MAGL [4] = biological target: T2, MAGL; test: In vitro competitive activity-based protein profiling (mouse brain membrane fraction or cell lysates), MAGL band; type: biochemical; details: mouse proteome; for inhibition at 1 µM: read-out: MAGL % Inh 1 μM (mouse); for IC50: competitive ABPP
Method: In Vitro Competitive Activity-Based Protein Profiling.
Proteomes (mouse brain membrane fraction or cell lysates) (50 μL, 1.0 mg/mL total protein concentration) were preincubated with varying concentrations of inhibitors at 37° C. After 30 min, FP—Rh (1.0 μL, 50 μM in DMSO) was added and the mixture was incubated for another 30 min at 37° C. Reactions were quenched with SDS loading buffer (50 μL-4×) and run on SDS-PAGE.

ABHD6 [5] = biological target: T3, ABHD6 (Mus musculus (Mouse), UniProt Q8R2Y0); test: In vitro competitive activity-based protein profiling (mouse brain membrane fraction or cell lysates), ABHD6 band; type: biochemical; details: mouse proteome; for inhibition at 1 µM: read-out: ABHD6 % Inh 1 μM (mouse); for IC50: competitive ABPP
Procedure, shortened: as §1

ABHD6 [6] = biological target: T3, ABHD6; test: Mouse brain proteomes from inhibitor treated mice (oral gavage, sacrificed 4 h after administration, ABPP analysis), ABHD6; type: in vivo, mouse (C57Bl/6J); details: 5 mg/kg oral gavage
Procedure, shortened: as §2

T2 sequence (O35678 whole entry): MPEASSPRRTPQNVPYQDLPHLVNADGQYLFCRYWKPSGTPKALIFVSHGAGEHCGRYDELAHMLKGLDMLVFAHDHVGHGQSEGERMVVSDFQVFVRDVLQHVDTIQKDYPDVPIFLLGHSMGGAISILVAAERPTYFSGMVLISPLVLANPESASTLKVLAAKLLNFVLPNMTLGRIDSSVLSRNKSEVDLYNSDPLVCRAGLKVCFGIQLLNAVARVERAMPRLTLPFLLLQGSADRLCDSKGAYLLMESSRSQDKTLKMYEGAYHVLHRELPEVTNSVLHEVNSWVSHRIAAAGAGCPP
T1 sequence (O08914 whole entry): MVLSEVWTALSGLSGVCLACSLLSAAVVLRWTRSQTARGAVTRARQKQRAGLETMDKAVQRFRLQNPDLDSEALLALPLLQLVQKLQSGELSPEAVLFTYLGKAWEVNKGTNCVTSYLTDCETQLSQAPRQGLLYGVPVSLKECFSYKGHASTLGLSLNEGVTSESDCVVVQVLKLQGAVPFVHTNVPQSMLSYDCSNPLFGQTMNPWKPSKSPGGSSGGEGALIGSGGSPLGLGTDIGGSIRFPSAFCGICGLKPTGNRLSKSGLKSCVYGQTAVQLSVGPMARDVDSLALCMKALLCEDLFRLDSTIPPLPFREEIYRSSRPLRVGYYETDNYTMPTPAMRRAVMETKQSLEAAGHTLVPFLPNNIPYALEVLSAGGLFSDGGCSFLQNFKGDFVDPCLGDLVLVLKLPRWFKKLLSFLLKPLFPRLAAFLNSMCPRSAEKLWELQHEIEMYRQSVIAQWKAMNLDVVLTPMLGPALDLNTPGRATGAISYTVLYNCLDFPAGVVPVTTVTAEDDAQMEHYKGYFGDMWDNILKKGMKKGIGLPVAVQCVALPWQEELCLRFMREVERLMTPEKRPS
T3 sequence (Q8R2Y0 whole entry): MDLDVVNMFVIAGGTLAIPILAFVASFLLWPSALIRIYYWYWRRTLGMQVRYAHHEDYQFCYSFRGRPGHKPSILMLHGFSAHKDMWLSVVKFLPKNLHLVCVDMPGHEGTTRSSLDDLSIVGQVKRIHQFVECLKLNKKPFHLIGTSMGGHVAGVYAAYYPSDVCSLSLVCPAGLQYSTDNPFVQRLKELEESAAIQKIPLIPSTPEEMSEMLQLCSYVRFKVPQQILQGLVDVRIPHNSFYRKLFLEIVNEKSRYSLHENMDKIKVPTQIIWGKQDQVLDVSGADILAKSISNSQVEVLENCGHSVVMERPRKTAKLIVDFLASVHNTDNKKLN

inhibition at 1 µM (FAAH [1]) [%]	IC50 (FAAH [1]) [nM]	MAGL % Inh 5 mg/kg (mouse) (MAGL [2])	FAAH % Inh 5 mg/kg (mouse) (FAAH [3])	inhibition at 1 µM (MAGL [4]) [%]	IC50 (MAGL [4]) [nM]	inhibition at 1 µM (ABHD6 [5]) [%]	IC50 (ABHD6 [5]) [nM]	ABHD6 % Inh 5 mg/kg (mouse) (ABHD6 [6])	SMILES
< 25	> 1000	### (### is ≥75%)	# (# is <25%)	> 75	< 100	< 25	> 1000	# (# is <25%)	Cc1ccc(CN2CCCC23CCN(C(=O)OC(C(F)(F)F)C(F)(F)F)CC3)cc1Cl [Example 125, 1,1,1,3,3,3-Hexafluoropropan-2-yl 1-(3-chloro-4-methylbenzyl)-1,8-diazaspiro[4.5]decane-8-carboxylate]
< 25	> 1000	# (# is <25%)	# (# is <25%)	> 75	< 100	< 25	> 1000	# (# is <25%)	CS(=O)(=O)NC1CCN(c2cc(C(F)(F)F)ccc2CN2CCCC23CCN(C(=O)OC(C(F)(F)F)C(F)(F)F)CC3)CC1 [Example 94, 1,1,1,3,3,3-Hexafluoropropan-2-yl 1-(2-(4-(methylsulfonamido)piperidin-1-yl)-4-(trifluoromethyl)benzyl)-1,8-diazaspiro[4.5]decane-8-carboxylate]
< 25	> 1000	### (### is ≥75%)	# (# is <25%)	> 75	< 100	< 25	> 1000	# (# is <25%)	CCc1cc(CN2CCCC23CCN(C(=O)OC(C(F)(F)F)C(F)(F)F)CC3)ccc1F [Example 150, 1,1,1,3,3,3-Hexafluoropropan-2-yl 1-(3-ethyl-4-fluorobenzyl)-1,8-diazaspiro[4.5]decane-8-carboxylate]
25 to 75	> 1000	### (### is ≥75%)	### (### is ≥75%)	> 75	< 100	25 to 75	> 1000	# (# is <25%)	O=C(OC(C(F)(F)F)C(F)(F)F)N1CCC2(CCCN2Cc2cccc(Cl)c2)CC1 [Example 61, 1,1,1,3,3,3-Hexafluoropropan-2-yl 1-(3-chlorobenzyl)-1,8-diazaspiro[4.5]decane-8-carboxylate]
< 25	> 1000	### (### is ≥75%)	# (# is <25%)	> 75	< 100	< 25	> 1000	# (# is <25%)	O=C(OC(C(F)(F)F)C(F)(F)F)N1CCC2(CCCN2Cc2cccc(N3CCCC3)c2Cl)CC1 [Example 81, 1,1,1,3,3,3-Hexafluoropropan-2-yl 1-(2-chloro-3-(pyrrolidin-1-yl)benzyl)-1,8-diazaspiro[4.5]decane-8-carboxylate]

Further lines, the compound ahead of its results:

SMILES	inhibition at 1 µM (FAAH [1]) [%]	IC50 (FAAH [1]) [nM]	MAGL % Inh 5 mg/kg (mouse) (MAGL [2])	FAAH % Inh 5 mg/kg (mouse) (FAAH [3])	inhibition at 1 µM (MAGL [4]) [%]	IC50 (MAGL [4]) [nM]	inhibition at 1 µM (ABHD6 [5]) [%]	IC50 (ABHD6 [5]) [nM]	ABHD6 % Inh 5 mg/kg (mouse) (ABHD6 [6])
O=C(OC(C(F)(F)F)C(F)(F)F)N1CCC2(CCCN2Cc2ccc(Cl)cc2N2CCCC2)CC1 [Example 76, 1,1,1,3,3,3-Hexafluoropropan-2-yl 1-(4-chloro-2-(pyrrolidin-1-yl)benzyl)-1,8-diazaspiro[4.5]decane-8-carboxylate]	< 25	> 1000	### (### is ≥75%)	# (# is <25%)	> 75	< 100	< 25	> 1000	# (# is <25%)
Cc1c(CN2CCCC23CCN(C(=O)OC(C(F)(F)F)C(F)(F)F)CC3)cccc1N1CCCCC1 [Example 84, 1,1,1,3,3,3-Hexafluoropropan-2-yl 1-(2-methyl-3-(piperidin-1-yl)benzyl)-1,8-diazaspiro[4.5]decane-8-carboxylate]	< 25	> 1000	### (### is ≥75%)	# (# is <25%)	> 75	100 to 1000	< 25	> 1000	# (# is <25%)
O=C(OC(C(F)(F)F)C(F)(F)F)N1CCC2(CCCN2Cc2ccc(F)c(OCCF)c2)CC1 [Example 29, 1,1,1,3,3,3-Hexafluoropropan-2-yl 1-(4-fluoro-3-(2-fluoroethoxy)benzyl)-1,8-diazaspiro[4.5]decane-8-carboxylate]	< 25	> 1000	### (### is ≥75%)	## (## is equal to or greater than 25% but less than 75%)	> 75	< 100	≥ 75	> 1000	### (### is ≥75%)
O=C(OC(C(F)(F)F)C(F)(F)F)N1CCC2(CCN(Cc3ccc(C(F)(F)F)cc3N3CC4COCC4C3)C2)CC1 (stereo not drawn) [Example 26, 1,1,1,3,3,3-Hexafluoropropan-2-yl 2-(2-(tetrahydro-1H-furo[3,4-c]pyrrol-5(3H)-yl)-4-(trifluoromethyl)benzyl)-2,8-diazaspiro[4.5]decane-8-carboxylate]	< 25	> 1000	## (## is equal to or greater than 25% but less than 75%)	# (# is <25%)	> 75	< 100	≥ 75	100 to 1000	# (# is <25%)
CC1(C)CC2(CCN(C(=O)OC(C(F)(F)F)C(F)(F)F)CC2)CN1Cc1cccc(Cl)c1N1CCOCC1 [Example 54, 1,1,1,3,3,3-Hexafluoropropan-2-yl 2-(3-chloro-2-morpholinobenzyl)-3,3-dimethyl-2,8-diazaspiro[4.5]decane-8-carboxylate]	< 25	> 1000	## (## is equal to or greater than 25% but less than 75%)	# (# is <25%)	> 75	< 100	< 25	> 1000	# (# is <25%)
O=C(OC(C(F)(F)F)C(F)(F)F)N1CCC2(CCN(Cc3ccc(C(F)(F)F)c(N4CCCC4)c3)C2)CC1 [Example 157, 1,1,1,3,3,3-Hexafluoropropan-2-yl 2-(3-(pyrrolidin-1-yl)-4-(trifluoromethyl)benzyl)-2,8-diazaspiro[4.5]decane-8-carboxylate]	< 25	> 1000	### (### is ≥75%)	# (# is <25%)	> 75	< 100	≥ 75	100 to 1000	## (## is equal to or greater than 25% but less than 75%)
O=C(OC(C(F)(F)F)C(F)(F)F)N1CCC2(CCCN2Cc2ccc(C(F)(F)F)cc2N2CCC2)CC1 [Example 96, 1,1,1,3,3,3-Hexafluoropropan-2-yl 1-(2-(azetidin-1-yl)-4-(trifluoromethyl)benzyl)-1,8-diazaspiro[4.5]decane-8-carboxylate]	< 25	> 1000	### (### is ≥75%)	# (# is <25%)	> 75	< 100	< 25	> 1000	# (# is <25%)
